# Reference: patent US20250296929A1, “NOVEL HEPATOSELECTIVE POLYADENYLATING POLYMERASES INHIBITORS AND THEIR METHOD OF USE” (BARUCH S. BLUMBERG INSTITUTE, priority 2021, published 2025)
# Several values for one entry are separate records, joined by “and”; a condition that tells them apart may be missing. Equal values may be shown once. Read-outs that look alike come from different tables or passages of the source.
# Tests used:
# [1] = Pharmacokinetics after 8 mg/kg oral (PO) administration, plasma; type: in vivo, CD1 mice; set-up: AUClast/D: unit not given here
# Protocol: Protocol for pharmacokinetic and tissue distribution studies. The pharmacokinetics of the compounds was studied in CD1 mice after intravenous (IV) and oral gavage (PO) administration. Mouse PK studies was conducted at 3 mg/kg (IV) and 8 mg/kg (PO). Plasma samples obtained from dosed animals, at ten time points, including 5, 15 and 30 minutes and 1, 1.5, 2, 4, 6, 8 and 24 hr post-dose for processing to plasma, were prepared for analysis by means of a single step protein precipitation technique, by adding 200 μL of acetonitrile containing an IS mixture (labetalol, imipramine and diclofenac) to 50 μL aliquots of individual subject samples. Samples were mixed by vortex for homogeneity and then subjected to centrifugation at 4000 rpm for 10 min. The supernatant (200 μL) was collected and injected into the LC-MS/MS for analysis. Pharmacokinetic parameters will be calculated using established non-compartmental methods. The liver distribution of the compounds was studied in the PO group and liver tissues were collected at each time point after PO administration. Accurately weighed whole liver tissues were collected in a 50 mL tube, and 3 volumes per weight of water will be added. Tissue samples were homogenized and 50 μL of the homogenates will be processed along with plasma samples as described above.
# [2] = target: T1, OATP1B3 (Homo sapiens, UniProt Q9NPD5); test: OATP1B3 transporter substrate uptake in OATP1B3-HEK293 cells; type: in vitro ADME; conditions: test concentration 1 μM
# T1 construct: expressed in transfected cells; host or cells: HEK293
# T1 sequence (Q9NPD5 1-702): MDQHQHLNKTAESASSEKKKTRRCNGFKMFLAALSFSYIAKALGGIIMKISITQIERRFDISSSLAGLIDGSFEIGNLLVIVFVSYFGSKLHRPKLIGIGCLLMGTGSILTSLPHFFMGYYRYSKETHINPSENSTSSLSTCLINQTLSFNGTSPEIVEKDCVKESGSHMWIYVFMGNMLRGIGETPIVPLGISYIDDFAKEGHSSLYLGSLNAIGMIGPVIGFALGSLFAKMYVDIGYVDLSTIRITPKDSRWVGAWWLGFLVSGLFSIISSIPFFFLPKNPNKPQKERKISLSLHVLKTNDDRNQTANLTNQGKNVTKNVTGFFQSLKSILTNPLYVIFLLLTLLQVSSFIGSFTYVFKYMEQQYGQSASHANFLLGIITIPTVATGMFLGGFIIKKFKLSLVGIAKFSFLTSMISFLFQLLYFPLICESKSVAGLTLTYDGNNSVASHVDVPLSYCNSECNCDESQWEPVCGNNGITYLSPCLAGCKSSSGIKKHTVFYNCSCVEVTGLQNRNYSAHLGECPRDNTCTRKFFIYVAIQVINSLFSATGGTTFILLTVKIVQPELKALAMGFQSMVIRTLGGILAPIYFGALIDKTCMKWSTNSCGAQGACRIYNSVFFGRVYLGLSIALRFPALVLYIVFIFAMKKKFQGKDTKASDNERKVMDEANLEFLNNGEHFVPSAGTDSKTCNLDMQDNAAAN
# Protocol: Protocol for identification of compounds that are substrates of transporters OATP1B1 and OATP1B3. Transfected HTEK293 and vector control HTEK293 cells were cultured in 24-well poly-D-lysine or collagen-coated tissue culture plates ([…]) for 2 and 10 minutes respectively in transport buffer (HIBSSg, pH 7.4, pre-warmed to 37° C.). At a defined time point, the uptake experiments were stopped by removing dosing solution followed by two washes of ice-cold HIBSSg buffer. The cells were lysed for 2 minutes with […] containing an appropriate internal standard (when available). Lysis buffer were chilled to −20° C., and the plate was kept on ice during lysis. The cell lysate was transferred into a 96-well plate for sample analysis with LC-MS/MS analysis to determine concentration of test compound in cell lysate. The uptake of test compounds was normalized by total cell protein using the BCA Protein Assay Kit following the manufacturer's protocol. The inhibitor Rifamycin SV was used to block OATP1B1 and OATP1B3 transporter activity in order to determine uptake ratios.
# [3] = CD1, mouse, plasma, 8 mg/kg oral, mean
compound,measurement,setting,value
"COc1cc2c(cc1OCCCCCCC(=O)O)C[C@@H](C(C)C)n1cc(C(=O)O)c(=O)cc1-2 [Example 6, (S)-9-((6-carboxyhexyl)oxy)-6-isopropyl-10-methoxy-2-oxo-6,7-dihydro-2H-pyrido[2,1-a]isoquinoline-3-carboxylic acid]",F,"[1]; 8 mg/kg oral vs 3 mg/kg IV, mean",5.09%
same,Plasma concentration,"[1]; 8 mg/kg oral, 0.25 h, individual animals",10.3 ng/mL and 19.5 ng/mL and 18.4 ng/mL
same,Plasma concentration,"[1]; 8 mg/kg oral, 0.5 h, individual animals",9.93 ng/mL and 9.00 ng/mL and 9.40 ng/mL
same,Plasma concentration,"[1]; 8 mg/kg oral, 1 h, individual animals",4.10 ng/mL and 5.94 ng/mL and 9.27 ng/mL
same,Plasma concentration,"[1]; 8 mg/kg oral, 2 h, individual animals",5.41 ng/mL and 4.55 ng/mL and 2.29 ng/mL
same,Plasma concentration,"[1]; 8 mg/kg oral, 4 h, individual animals",3.03 ng/mL and 4.12 ng/mL and 3.68 ng/mL
same,Plasma concentration,"[1]; 8 mg/kg oral, 6 h, individual animals",1.53 ng/mL and 2.42 ng/mL and 2.85 ng/mL
same,Plasma concentration,"[1]; 8 mg/kg oral, 8 h, individual animals",6.65 ng/mL and 2.11 ng/mL and BLOQ
same,Plasma concentration,"[1]; 8 mg/kg oral, 24 h, individual animals",BLOQ
same,AUClast/D,"[1]; 8 mg/kg oral, mean",4.33
same,concentration at 0.25 h,"[1]; CD1, mouse, plasma, oral, 8 mg/kg, 8 mg/kg oral, 0.25 h, individual animals, read-out: Plasma concentration",18.4 ng/mL
same,concentration at 0.25 h,"[1]; CD1, mouse, plasma, oral, 8 mg/kg, 8 mg/kg oral, 0.25 h, mean, read-out: Mean plasma concentration",16.1 ng/mL
same,concentration at 0.5 h,"[1]; CD1, mouse, plasma, oral, 8 mg/kg, 8 mg/kg oral, 0.5 h, individual animals, read-out: Plasma concentration",9.4 ng/mL
same,concentration at 0.5 h,"[1]; CD1, mouse, plasma, oral, 8 mg/kg, 8 mg/kg oral, 0.5 h, mean, read-out: Mean plasma concentration",9.44 ng/mL
same,concentration at 1 h,"[1]; CD1, mouse, plasma, oral, 8 mg/kg, 8 mg/kg oral, 1 h, mean",6.44 ng/mL
same,concentration at 2 h,"[1]; CD1, mouse, plasma, oral, 8 mg/kg, 8 mg/kg oral, 2 h, mean",4.08 ng/mL
same,concentration at 4 h,"[1]; CD1, mouse, plasma, oral, 8 mg/kg, 8 mg/kg oral, 4 h, individual animals, read-out: Plasma concentration",3.68 ng/mL
same,concentration at 4 h,"[1]; CD1, mouse, plasma, oral, 8 mg/kg, 8 mg/kg oral, 4 h, mean, read-out: Mean plasma concentration",3.61 ng/mL
same,concentration at 6 h,"[1]; CD1, mouse, plasma, oral, 8 mg/kg, 8 mg/kg oral, 6 h, individual animals, read-out: Plasma concentration",2.85 ng/mL
same,concentration at 6 h,"[1]; CD1, mouse, plasma, oral, 8 mg/kg, 8 mg/kg oral, 6 h, mean, read-out: Mean plasma concentration",2.27 ng/mL
same,concentration at 8 h,"[1]; CD1, mouse, plasma, oral, 8 mg/kg, 8 mg/kg oral, 8 h, mean",4.38 ng/mL
same,AUC(0-t),[1]; [3],34.7 ng·h/mL
same,Cmax,[1]; [3],16.1 ng/mL
same,Tmax,[1]; [3],15 min
same,Uptake Ratio (−/+Inhibitor),"[2]; OATP1B3-HEK293 cells, inhibitor Rifamycin SV",11.57
same,Uptake Ratio (Transporter(−Inhibitor)/Mock(−Inhibitor)),[2]; OATP1B3-HEK293 vs Mock,24.80
